Legend:
Jurkat tumor cell line = experiment: Assessment of cytochrome c loss (FlowCellect Cytochrome c Kit); assay type: cell-based, human; settings: compound at CC50, incubation 3 h, anti-cytochrome c-FITC
Experimental: Quantification of cytochrome c release from mitochondria in apoptotic cells was presented to detect the mitochondrial pathway of apoptosis in cells using flow cytometry with the FlowCellect™ Cytochrome c Kit (FCCH100110). For this, cells were treated with FITC-conjugated antibodies against cytochrome c and control anti-IgG1-FITC, together with the use of an optimized fixation procedure, permeabilization, and blocking buffer (Luminex®, USA). […] Jurkat cells were incubated for 4 h with the synthesized substances at a concentration corresponding to their 24-h CC50 in a culture plate and assessed using the NovoCyte Penteon Flow Cytometer System (Agilent, 5301 Stevens Creek Blvd., Santa Clara, CA, USA). The obtained data were processed using NovoExpress® software (ACEA).

K562 = experiment: Cytotoxicity assay (7-AAD viability, flow cytometry); assay type: cell-based, human; settings: ± standard error of the mean, 95% CI in parenthesis
Source text: (§1) Cells, including Jurkat E6.1 (human leukemic T cell lymphoblasts, catalogue no. 88042803), K562 (human chronic myelogenous leukemia cells, catalogue no. 89121407), U937 (human histiocytic lymphoma cells, catalogue no. 85011440), HL60 (human promyelocytic leukemia cells, catalog no. 98070106), HEK293 (human embryonic kidney cells with adenovirus, catalog no. 85120602), and human lung fibroblasts Ce (catalogue no. 90011883), were purchased from the European Collection of Authenticated Cell Cultures (UK Health Security Agency) and cultured according to standard protocols using sterile techniques. […] Cells were maintained in RPMI 1640 (Jurkat, K562, U937, and HL60) and DME M (fibroblast and HEK293) (Gibco) supplemented with […] glutamine, 10% FBS (Sigma), and 100 units/mL penicillin-streptomycin (Sigma). All types of cells were grown under an atmosphere of 5% CO2 at 37 °C. The cells were subcultured at 2–3-day intervals. Cells were then seeded in 24-well plates at 5 × 10^4 cells per well and incubated overnight. Jurkat, K562, U937, HL60, HEK293, and fibroblast cells were subcultured at 2-day intervals with a seeding density of 1 × 10^5 cells per well in 24-well plates in RPMI with 10% FBS.
(§2) Viability (live/dead) assessment was performed by staining cells with 7-AAD (7-aminoactinomycin D; Biolegend). After treatment, cells were harvested, washed 1–2 times with phosphate-buffered saline (PBS), and centrifuged at 400× g for 5 min. Cell pellets were resuspended in 200 µL of flow cytometry staining buffer (PBS without Ca^2+ and Mg^2+, 2.5% FBS) and stained with […] of 7-AAD staining solution for 15 min at room temperature in the dark. Samples were assessed using the NovoCyte Penteon Flow Cytometer System (Agilent, 5301 Stevens Creek Blvd., Santa Clara, CA, USA). Detection of 7-AAD emission was collected through a 675/30 nm filter in the FL4 channel.

[1] = as above; assay type: cell-based, human; settings: human; Hek293, conditionally normal line; ± standard error of the mean, 95% CI in parenthesis
Source text: as §1, §2

HL60 = experiment: as above; assay type: cell-based, human; settings: 95% CI in parenthesis
Source text: as §1, §2

U937 = experiment: as above; assay type: cell-based, human; settings: 95% CI in parenthesis
Source text: as §1, §2

Jurkat = experiment: as above; assay type: cell-based, human; settings: ± standard error of the mean, 95% CI in parenthesis
Source text: as §1, §2

Jurkat cells [2] = experiment: Assessment of autophagy (anti-LC3/FITC, flow cytometry); assay type: cell-based, human; settings: 0.5 CC50, 48 h
Source text: Autophagy is involved in various physiological processes and its changes are associated with the pathogenesis of diseases such as neurodegenerative diseases, cardiovascular complications, cancer, and infectious diseases, as well as with physiological processes such as innate and specific immunity, pathogen clearance, lymphocyte selection, antigen presentation, and production of immunoglobulins. Therefore, the determination of LC3 protein inside autophagosomes without the cytosolic form of LC3-I at the stage of selective cell permeability was measured using flow cytometry. Thus, using the FlowCellect™ LC3-GFP Reporter Autophagy Assay Kit (FCCH100170 and FCCH100181), flow cytometry allowed for a rapid assay that could be combined with other phenotypic and functional markers to characterize different cell populations.
Canonical autophagy is associated with the conversion of LC3 protein (an autophagosome marker) from the cytoplasmic form of LC3I to the lipid-bound form of LC3II, which is associated with the membranes of maturing autophagosomes. The autophagy process can be conveniently classified into several stages. First, induction and translocation of the cytoplasmic LC3 protein occur due to the influence of external stimuli (adverse environmental influences)—the process is initiated by external/internal stimuli (for example, nutrient depletion or hypoxia). Then, the formation of autophagosomes begins, which are double-membrane vesicles that include the LC3 protein. This protein regulates the fusion of autophagosomes and lysosomes. It exists in two fractions—cytoplasmic LC3-I and LC3-II, isolated in the autophagosomal membrane. The LC3-II protein fraction was specified in our work, as its detection is a reliable indicator of the processes of autophagy in the cell.

Jurkat cells [3] = experiment: Cell cycle analysis (propidium iodide, Guava Cell Cycle Reagent); assay type: cell-based, human; settings: compound at CC50, 48 h, control did not exceed 34.2%
Experimental: The cell cycle was analyzed by propidium iodide staining (Guava® Cell Cycle Reagent 4500-0220). […] The cell pellet was resuspended in 200 μL of flow cytometry staining buffer (PBS without Ca^2+ and Mg^2+, 2.5% FBS). Cells were then seeded in 24-well plates at a density of 15 × 10^5 cells per well, centrifuged at 450× g for 5 min, then fixed with ice-cold 70% ethanol for 24 h at 0 °C. Before staining with propidium iodide, cells were washed with PBS and incubated with 250 µL of cell cycle detection reagent (Millipore) for 40 min at 22 °C in the dark. Samples were analyzed using the NovoCyte Penteon Flow Cytometer System (Agilent, 5301 Stevens Creek Blvd., Santa Clara, CA, USA).

Jurkat cells [4] = experiment: Oxidative stress and early apoptosis (MitoSOX Red and annexin V, MitoStress Kit); assay type: cell-based, human; settings: compound at CC50, 4 h; for cells demonstrating oxidative stress along with the marker of early apoptosis, annexin: MitoSOX Red and annexin V
Source text: Changes in the mitochondrial membrane potential (ΔΨ) in Jurkat cells induced by treatment with the synthesized compounds were detected using MitoSOX Red, a positively charged probe that accumulates rapidly in mitochondria and as such can be used to detect superoxide/ROS production within mitochondria using fluorometry, microscopy, or flow cytometry. Live cells induced a low level of MitoSOX Red fluorescence, while cells with scattered mitochondrial membrane potential caused much higher MitoSOX Red fluorescence. Annexin V is a dye commonly used to detect early signs of apoptosis. […] Thus, using two different dyes, MitoSOX Red and annexin V (CF488A), in the FlowCellect™ MitoStress Kit (FCCH100109), we analyzed the mitochondrial membrane potential dissipation and associated apoptosis in Jurkat cells in response to the synthesized chatenaytrienins.
Therefore, simultaneous detection of mitochondrial superoxide generation (detected by MitoSOX Red membrane-penetrating dye) and expression of phosphatidylserine on the cell surface of apoptotic cells (assessed by binding of annexin V) in the same cell sample provides an accurate evaluation of the ability of the test compound to initiate oxidative stress in cell culture and induce apoptosis.

[5] = Cytotoxicity assay (7-AAD viability, flow cytometry); assay type: cell-based, human; settings: human; normal fibroblasts; ± standard error of the mean, 95% CI in parenthesis
Jurkat cells [6] = experiment: Detection of mitodamage: mitochondrial membrane potential and apoptosis (MitoSense Red, annexin V, 7-AAD); assay type: cell-based, human; settings: compound at CC50, 4 h; for cells in late apoptosis (stained with 7-AAD): Jurkat; for Jurkat tumor cells with the Δψ dissipation phenomenon: MitoSense Red
Source text: The use of reagents MitoSense Red, annexin V, and 7-AAD in the Millipore FlowCellect™ MitoDamage Kit allowed us to gain information on early, mid, and late apoptosis with one simple assay. […] After this time, the cells were dissociated using an accutase solution, stained, and analyzed using the NovoCyte Penteon Flow Cytometer System (Agilent, 5301 Stevens Creek Blvd., Santa Clara, CA, USA), according to the manufacturer’s protocols for the FlowCellect™ MitoDamage Kit and FlowCellect™ Oxidative Stress Characterization Kit (Merck).
Detection of mitochondrial potential dissipation using MitoSense Red, annexin V, and 7-AAD provided a simultaneous measurement of three important parameters of the cell state within the same cell sample: the state of the mitochondrial potential (Δψ), detected by the membrane-penetrating MitoSense Red dye; the expression of phosphatidylserine on the cell surface of apoptotic cells, assessed by the binding of annexin V to externalized phosphatidylserine; and the binding of 7-AAD to DNA in cells in the late stages of apoptosis. Multiparametric evaluation of these indicators of cell viability made it possible to determine the correlation and relationship between oxidation dissipation and phosphorylation with apoptosis.

T24 bladder cancer cells = tested on: T24 bladder cancer cells; set-up: method as in PMID 16154156; settings: cited from earlier work
Hek293 = experiment: Cytotoxicity assay (7-AAD viability, flow cytometry); assay type: cell-based, human; settings: Hek293, conditionally normal line; ± standard error of the mean, 95% CI in parenthesis
Source text: as §1, §2

[7] = tested on: Fibroblasts (PCS-201-018); experiment: as above; assay type: cell-based, human; settings: normal fibroblasts; ± standard error of the mean, 95% CI in parenthesis

CCCCCCCCCCCC/C=C\CC/C=C\CC/C=C\CCCCCCCCC1=C[C@H](C)OC1=O [compound 2, chatenaytrienin-2]
cells with cytochrome c released into the cytoplasm (Negative gate) (Jurkat tumor cell line): 33.51%
CC50 (K562; Homo sapiens): 0.18 ± 0.05 µM
CC50 [1]: 0.63 ± 0.03 µM
CC50 (HL60; Homo sapiens, HL-60, ± standard error of the mean): 0.13 ± 0.02 µM
CC50 (U937; Homo sapiens, U-937, ± standard error of the mean): 0.12 ± 0.01 µM
CC50 (Jurkat; Homo sapiens): 0.12 ± 0.06 µM
cells with autophagy (gate M3-2) (Jurkat cells [2]): 79.96%
percentage of cells in the S-phase (Jurkat cells [3]): ~ 47%
cells demonstrating oxidative stress along with the marker of early apoptosis, annexin (Jurkat cells [4]): 11.86%
CC50 [5]: 0.79 ± 0.02 µM
cells in late apoptosis (stained with 7-AAD) (Jurkat cells [6]): 8.44%
Jurkat tumor cells with the Δψ dissipation phenomenon (Jurkat cells [6]): 67.76%

CCCCCC[C@H](O)CCC[C@H](O)[C@H]1CC[C@H]([C@H]2CC[C@H]([C@H](O)CCCCCCCCCCCCC3=C[C@H](C)OC3=O)O2)O1 [squamocin]
effect on cell cycle (T24 bladder cancer cells): blocked cells in the G1 phase

chatenaytrienin-4 [compound 4]
cells with cytochrome c released into the cytoplasm (Negative gate) (Jurkat tumor cell line): 42.10%
CC50 (K562): 0.13 ± 0.04 µM
CC50 (HL60; ± standard error of the mean): 0.19 ± 0.02 µM
CC50 (U937; ± standard error of the mean): 0.13 ± 0.05 µM
CC50 (Jurkat): 0.16 ± 0.01 µM
CC50 (Hek293): 0.53 ± 0.01 µM
cells with autophagy (gate M3-2) (Jurkat cells [2]): 56.09%
cells demonstrating oxidative stress along with the marker of early apoptosis, annexin (Jurkat cells [4]): 26.8%
CC50 [7]: 0.98 ± 0.04 µM
cells in late apoptosis (stained with 7-AAD) (Jurkat cells [6]): 1.88%
Jurkat tumor cells with the Δψ dissipation phenomenon (Jurkat cells [6]): 53.51%

chatenaytrienin-3 [compound 3]
cells with cytochrome c released into the cytoplasm (Negative gate) (Jurkat tumor cell line): 41.99%
CC50 (K562): 0.09 ± 0.01 µM
CC50 (HL60; ± standard error of the mean): 0.14 ± 0.04 µM
CC50 (U937; ± standard error of the mean): 0.18 ± 0.02 µM
CC50 (Jurkat): 0.15 ± 0.04 µM
CC50 (Hek293): 0.78 ± 0.04 µM
cells with autophagy (gate M3-2) (Jurkat cells [2]): 91.50%
intact (live) cells in the sample (Jurkat cells [4]): 9.9%
CC50 [7]: 0.83 ± 0.05 µM
cells in late apoptosis (stained with 7-AAD) (Jurkat cells [6]): 17.01%
Jurkat tumor cells with the Δψ dissipation phenomenon (Jurkat cells [6]): 62.42%
